System: P. falciparum 3D7 growth, pLDH absorbance
Assay: blood-stage malaria parasite growth potency – strain 3D7, dose response (AID 2305)

Row | SMILES | IC50 [nM]
1 | O=C(Nc1cccc(-c2cccc(-c3nc4ccc(C(F)(F)F)cc4[nH]3)c2)c1)c1ccncc1 | 200
2 | CC(=O)Nc1cccc(C(=O)Nc2nc3ccc(-c4cc(=O)[nH]c(Nc5ccccc5Cl)n4)cc3[nH]2)c1 | 690
3 | CC(C)CCN1C(=O)C(NC(=O)Oc2ccccc2)C(=O)N(CC23CC4CC(CC(C4)C2)C3)c2ccccc21 (configuration not stated) | 750
4 | CCCCCCP(=O)(COc1ccc(CCN(CC(O)COc2cccc3[nH]c(C(N)=O)cc23)CC(O)COc2cccc3[nH]c(C(N)=O)cc23)cc1)OCCCC (configuration not stated) | 720
5 | CC(C)n1c(C2CCN(CC3CCN(C(=O)/C=C/c4ccc(Cl)c(Cl)c4)CC3)CC2)nc2ccccc21 | 1030
6 | O=C(/C=C/c1ccc(Cl)c(Cl)c1)NCCCCN1CCCN(C(=O)Nc2ccc(F)c(Cl)c2)CC1 | 1510
7 | COc1cc(Nc2nccc(-c3c(-c4cccc(NC(=O)c5c(F)cccc5F)c4)nn4ncccc34)n2)cc(OC)c1OC | 30
8 | Cc1cccc2[nH]c(-c3ccc(-c4cccc(NC(=O)CCc5cnc[nH]5)c4)cc3)nc12 | 410
9 | COc1ccc(C2CC(c3ccccc3O)=NN2C(=O)c2ccco2)cc1OC (configuration not stated) | 950
10 | Cc1cc(=O)[nH]c(/N=C(/N)NOCc2ccccc2)n1 | 420
11 | CS(=O)(=O)c1ccc(CNCc2cccc(-c3ccc(-c4nc5ccc(C(F)(F)F)cc5[nH]4)cc3)c2)cc1 | 510
12 | O=C(CCc1cnc[nH]1)Nc1cccc(-c2cccc(-c3nc4ccccc4[nH]3)c2)c1 | 660
13 | O=C(Nc1ccc(CCNCc2ccccc2)cc1)Nc1ccc(OC(F)(F)F)cc1 | 580
14 | CN1CCN(c2ccnc3cc4c(cc23)N(C(=O)Nc2ccc(-c3ccncc3)c3ccccc23)CC4)CC1 | 950
15 | COc1cc(NC(=O)c2sc(-c3ccc(Cl)cc3)cc2NC(=O)c2cccc(N(C)C)c2)ccc1OCCN1CCCC1 | 710
16 | CN(CCCNCc1cccc2ccccc12)CCCNCc1cccc2ccccc12 | 720
17 | Cc1cc([N+](=O)[O-])ccc1N1CCN(CCCCNC(=O)c2ccc(NC(=O)c3ccc(Cl)cc3)cc2)CC1 | 890
18 | Cc1nc(-c2nc(NCc3ccc4c(c3)OCO4)ncc2-c2ccsc2)sc1C | 100
19 | CCc1cc(=O)[nH]c(-n2nc(C)cc2NC(=O)CC(c2ccccc2)c2ccccc2)n1 | 960
20 | Cc1cc2nc(/N=C(\N)NC(=O)NC3CCCCC3)nc(C)c2cc1C | 750
21 | Cc1cc(N[C@@H](CC(C)C)C(=O)NCc2cccs2)nc(NCCc2ccc(F)cc2)n1 | 800
22 | CCOc1cc(C)ccc1C1CCN(CCN2CCC(CNC(=O)c3ccc(-c4ccc(C(F)(F)F)cc4)cc3)CC2)CC1 | 700
23 | CC(=NNC(=S)NCc1ccco1)c1ccccn1 | 250

Row | SMILES | IC50 [nM]
24 | FC(F)(F)c1ccc2c(NCCc3ccccc3)ccnc2c1 | 1270
25 | CC(=O)Nc1ccc(C(=O)Nc2cccc(-c3ccc(-c4nc5c(C)cccc5[nH]4)cc3)c2)cn1 | 190
26 | O=C(NCC1CCN(Cc2cccc(F)c2)C1)c1cc(-c2cccc(C(F)(F)F)c2)cs1 (configuration not stated) | 990
27 | Cc1ccc(NC(=O)c2ccc3ncccc3c2)cc1OC1CCN(CCC(C)C)CC1 | 690
28 | CC(C)c1ncc(-c2ccncc2)c(C2CCC(CNC(=O)c3cccnc3)CC2)n1 (configuration not stated) | 780
29 | COc1ccc(CN2CCC2=O)c(OC)c1 | 120
30 | C=CCn1c(SCC(=O)Nc2cc(Cl)ccc2Cl)nc2sc(C)cc2c1=O | 70
31 | O=S(=O)(Nc1cccc(CCN2CCCCC2CCN2CCCC2)c1)c1ccc2ccccc2c1 (configuration not stated) | 1070
32 | COc1ccc(CC2(c3ccc(F)cc3)N=C(N)N(CCCc3ccc4c(c3)OCO4)C2=O)cc1 (configuration not stated) | 740
33 | CC(=NO)C1=C(O)C(c2ccccc2)N(c2ccccc2)C1=O (configuration not stated) | 700
34 | C[C@H](NC(=O)c1c(CN2CCC(N3CCCCC3=O)CC2)c(-c2cccs2)nc2ccccc12)C1CCCCC1 | 900
35 | CC[C@H]1CN2CC[C@H]1C[C@H]2[C@H](O)c1cc(/C=C/c2ccccc2)nc2ccc(OC)cc12 | 40
36 | COc1ccc2nccc([C@@H](O)CN3CCC(NC(=O)C(=Cc4ccc(Cl)cc4Cl)c4ccc(-c5ccccc5)cc4)CC3)c2c1 | 990
37 | CCn1c(-c2nonc2N)nc2c(-c3cccc(NC(=O)Nc4ccccc4OC)c3)ncc(OCCCN)c21 | 1000
38 | CCNC(=O)N[C@@H]1CN[C@@H](C#Cc2cc3c(Nc4ccc(OCc5cccc(F)c5)c(Cl)c4)ncnc3s2)C1 | 1010
39 | CCCCCCOc1ccc(C(=O)NCCCC2CCN(CCCCCNC(=O)C=Cc3ccc(Cl)c(Cl)c3)CC2)cc1 | 850
40 | N#Cc1ccnc(-c2ccc(CNC3CCN(CC4Cn5c(=O)ccc6ccc(F)c4c65)CC3)cc2)c1 (configuration not stated) | 1220
41 | O=C(O)c1ccc(OCOCOc2ccc(C(=O)O)c(O)c2)cc1O | 190
42 | CN1CCC(N2CCN(CCOc3cc(NC(=O)/C=C/c4ccccc4Cl)ccc3Br)CC2)CC1 | 360
43 | Cn1ccc(C(=O)Nc2ccc3c(c2)CN(Cc2ccc(N4CCCC4)o2)CCC3)n1 | 1310
44 | CCN(CC)CCOc1ccc(Nc2ncc3cc(-c4c(Cl)cccc4Cl)c(=O)n(C)c3n2)cc1 | 1180
45 | C[C@@H](CC1CCCCC1)OC(=O)N(C)[C@H]1CCN(C#N)C1 | 220
46 | CCc1nc(N)nc(N)c1CCCOc1ccccc1Cl | 100

Row | SMILES | IC50 [nM]
47 | O=C(Nc1ccc(Oc2ccccc2)cc1)N(Cc1ccc(-c2cccc(CN3CCNCC3)c2)cc1)C1CCN(Cc2ccccc2)CC1 | 880
48 | O=C(Nc1ccc(Cl)c(C(F)(F)F)c1)c1ccc(C(=O)Nc2ccc(Cl)c(C(F)(F)F)c2)cc1 | 1000
49 | CCCCCCCN1CC[C@@H](CCCc2ccnc3ccc(OC)cc23)[C@@H](CCN)C1 | 750
50 | Cc1cccc2[nH]c(-c3cccc(-c4cccc(NC(=O)c5csnn5)c4)c3)nc12 | 300
51 | CCCC1N=C(N)N=C(N)N1c1ccc(C)c(C)c1 (configuration not stated) | 70
52 | COCc1ccc(CN2CCC(C(=O)Nc3ccc(-c4nc5ccccc5[nH]4)cc3)CC2)o1 | 850
53 | C=C[C@]1(C)C[C@@H](OC(=O)c2n[nH]c3ccccc3c2=O)[C@]2(C)[C@H](C)CC[C@]3(CCC(=O)[C@H]32)[C@@H](C)[C@@H]1O | 670
54 | CCCCCN1CCCCC(NS(=O)(=O)c2ccc(C(=O)Nc3cccc(C(F)(F)F)c3)cc2)C1 (configuration not stated) | 750
55 | Cc1[nH]c(C)c(-c2ccc(Oc3cc(Cl)cc(Cl)c3)cc2)c(=O)c1Br | 240
56 | CCCCCc1cc(OC(C)=O)c2c(c1)OC(C)(C)C=C2C1=CCN(Cc2ccccc2)CC1 | 930
57 | Cc1[nH]c(C)c(-c2ccc(Oc3ccc(OC(F)(F)F)cc3)cc2)c(=O)c1I | 130
58 | Cc1cc(NC2CCN(CC3CCCCC3)C2)nc(Nc2ccc(Cl)cc2)n1 (configuration not stated) | 400
59 | CN(C)c1ccc(CN2CCC(CNC(=O)c3cc(-c4cccc(C(F)(F)F)c4)cs3)C2)cc1 (configuration not stated) | 880
60 | Nc1nc2ccc(CN(C=O)c3ccc(C(=O)N[C@@H](CCC(=O)O)C(=O)O)cc3)cc2c(=O)[nH]1 | 180
61 | CCCc1cc(Cc2cnc(N)nc2N)cc2c1OC(C)(C)C2 | 1080
62 | O=C(/C=C/c1ccc(Cl)c(Cl)c1)NC1CCC(CN2CCC(c3nc4ccc(O)cc4[nH]3)CC2)CC1 (configuration not stated) | 240
63 | COc1ccc(CN2CCCN(Cc3cccc(NC(=O)c4cc5ccccc5s4)c3)CC2)cc1 | 840
64 | CN1CCc2cc(Br)c(O)cc2C1Cc1ccccc1Cl (configuration not stated) | 670
65 | O=C(NCCc1cccc(F)c1)c1cc(Br)cc(N2CCN(c3ccncc3)CC2)c1 | 760
66 | N=C(N)c1ccc(NC(=O)c2cc(Sc3ccc(O)c(C(=O)Nc4ccc(C(=N)N)cc4)c3)ccc2O)cc1 | 120
67 | CCCCn1c(Sc2ccc(C#N)c([N+](=O)[O-])c2)nnc1-c1cc(OC)cc(OC)c1 | 820

From PubChem BioAssay AID2305 (GlaxoSmithKline (GSK), 2010)
